Where only a bound is given, the exact number is not on record here.

A short description of series [1]: In vivo PK experiment: oral SQV with or without oral RESV. The settings on record: rats. Also on record: species or system rat.
For series [2] the following is noted: low solubility and high permeability; cited from earlier work.
The conditions of series [3]: clinical practice; cited from earlier work.

Turning to `Oc1ccc(/C=C/c2cc(O)cc(O)c2)cc1` [RESV, resveratrol], the “Effect of coadministration on Cmax of SQV” value in series [1] (RESV 20 mg/kg oral with SQV 30 mg/kg oral, P>0.05) was “not significantly affected”.

`CC(C)(C)NC(=O)[C@@H]1C[C@@H]2CCCC[C@@H]2CN1C[C@@H](O)[C@H](Cc1ccccc1)NC(=O)[C@H](CC(N)=O)NC(=O)c1ccc2ccccc2n1` [SQV, saquinavir]: the “Time of first peak in plasma levels” value in series [1] (SQV 30 mg/kg oral, RESV (20 mg/kg) treatment group) is ~0.25 h. In series [1] (SQV 30 mg/kg oral, both groups (with or without RESV 20 mg/kg)), the “Time of second peak in plasma levels” value was ~ 4 h. Besides, the “Time of first peak in plasma levels” value in series [1] (SQV 30 mg/kg oral, control group) is ~ 0.5 h. The “Biopharmaceutics Classification System class” value in series [2] is “class II”. For the same compound, in series [3], the “Coefficient of variation (CV) of oral bioavailability” value was > 100% and the Oral bioavailability is recorded as ~ 4%.

The record behind these values is paper PMC5117956 (Drug Design, Development and Therapy, 2016).
